Measurements as given in EP0166357A2, “Benzofused lactams and pharmaceutical compositions containing them” (Merck & Co., Inc., priority 1984, dated 1986).

Target: CCK receptor
Assay: 125I-CCK-33 receptor binding assay
Details: tissue not stated for the values (methods given for rat pancreas and guinea pig brain cortex membranes); read-out: IC50, inhibition of specific 125I-CCK-33 binding
Protocol: CCK-33 was radiolabeled with […] (2000 Ci/mmole) as described by Sankara et al. [J. Biol. Chem. 254: 9349-9351, (1979)]. Receptor binding was performed according to Innis and Snyder [Proc. Natl. Acad. Sci. 77: 6917-6921, (1980)] with the minor modification of adding the additional protease inhibitors, phenylmethane sulfonyl fluoride and o-phenanthroline. The latter two compounds have no effect on the ^125I-CCK receptor binding assay.
Male Sprague-Dawley rats (200-350g) were sacrificed by decapitation. The whole pancreas was dissected free of fat tissue and was homogenized in 20 volumes of ice-cold 50 mM, Tris HC1 (pH 7.7 at 25°C) with a Brinkman Polytron PT 10. The homogenates were centrifuged at 48,000 g for 10 min. Pellets were resuspended in Tris Buffer, centrifuged as above and resuspended in 200 volumes of binding assay buffer (50 mM Tris HC1, pH 7.7 at 25°C, 5 mM dithiothriethel, 0.1 mM bacitracin, 1.2 mM phenylmethane sulfonyl fluoride and 0.5 mM o-phenanthroline). For the binding assay, 25 µl of buffer (for total binding) or unlabeled CCK-8 sulfate to give a final concentration of luM (for nonspecific binding) or the compounds of Formula 1 (for determination inhibition of 125I-CCR binding) and 25 µl of 125I-CCK-33 (30,000-40,000 cpm) were added to 450 µl of the membrane suspensions in microfuge tubes. All assays were run in duplicate or triplicate. The reaction mixtures were incubated at 37°C for 30 minutes and centrifuged in a Beckman Microfuge (4 minutes) immediately after adding 1 ml of ice-cold incubation buffer. The supernatant was aspirated and discarded, pellets were counted with a Beckman gamma 5000.
CCK-33 was radiolabeled with and the binding was performed according to the description for the pancreas method with modifications according to Saito, et al. (J. Neurochem, 37, 483-490 (1981)).
Hall Hartley guinea pigs (300-500 g) were sacrificed by decapitation and the brains were removed and placed in ice-cold 50 mM, Tris HC1 plus 7.58 g/1 Tritma-7.4 (pH 7.4 at 25°C) Cerebral cortex was dissected and used as a receptor source. Each gram of fresh guinea pig brain tissue was homogenized in 10 ml of Tris/Trizma buffer with a Brinkman polytron PT-10. The homogenates were centrifuged at 42,000 g for 15 minutes. Pellets were resuspended in Tris Buffer, centrifuged as above and resuspended in 200 volumes of binding assay buffer (10 mM HEPES, pH 7.7 at 25°C, 5 mM Mg C12, […], 0.4% BSA (bovine serum albumin) and 0.25 mg/ml bacitracin). For the binding assay, 25 µl of buffer (for total binding) or unlabeled CCK-8 sulfate to give a final concentration of 1µM (for nonspecific binding) or the compounds of Formula 1 (for determination inhibition of ^125I-CCK binding) and 25 µl of ^125I-CCK-33 (30,00-40,000 cpm) were added to 450 µl of the membrane suspensions in microfuge tubes. All assays were run in duplicate or triplicate. The reaction mixtures were incubated at 25°C for 2 hours and centrifuged in a Beckman Microfuge (4 minutes) immedidately after adding 1 ml of ice-cold incubation buffer. The supernatant was aspirated and discarded, pellets were counted with a Beckman gamma 5000.

| Structure (SMILES) | IC50 |
| --- | --- |
| CC(C)(C)OC(=O)CN1C(=O)C(NC(=O)[C@H](Cc2c[nH]c3ccccc23)NC(=O)OCc2ccccc2)CCc2ccccc21 (single isomer, unassigned) [l-t-Butoxycarbonylmethyl-3(-L-N-carbobenzyloxytrypto- phanyl)aminohomodihydrocarbostyril] | 1200 nM |
| CC(=O)N[C@H](Cc1c[nH]c2ccccc12)C(=O)NC1CCc2ccccc2N(CC(=O)OC(C)(C)C)C1=O (single isomer, unassigned) [1-t-Butoxycarbonylmethyl-3-(D-N-acetyltryptophanyl)-aminohomodihydrocarbostyril] | 1600 nM |
| CCOC(=O)C(CCc1ccccc1)NC1CCc2ccccc2N(C)C1=O (single isomer, unassigned) [1-Methyl-3-(1-Carboethoxy-3-phenyl-1-propyl) aminohomodihydrocarbostyril] | 60000 nM |
| CC(=O)N[C@@H](Cc1c[nH]c2ccccc12)C(=O)NC1CCc2ccccc2N(CC(=O)OC(C)(C)C)C1=O (single isomer, unassigned) [l-t-Butoxycarbonylmethyl-3-(L-N-acetyltryptophanyl)-aminohomodihydrocarbostyril] | 2800 nM |
| COC(=O)CN1C(=O)C(NCc2c[nH]c3ccccc23)CCc2ccccc21 (racemic) [l-Carbomethoxymethyl-3-(3-indolemethyl)amino homodihydrocarboxtyril] | 15000 nM |
